Source: patent publication US11046672B2, “Indolinones compounds and their use in the treatment of fibrotic diseases” (RESPIVERT LIMITED, priority 2015, dated 2021)
“And” between values parts separate entries of the source, which are not always exact repeats. Equal entries are not always repeated.

Legend:
MRC5 cells = assay: Cell viability assay in MRC5 cells (MTT)
PDGFRβ [1] = molecular target: T1, PDGFRβ (Homo sapiens (Human), UniProt P09619); conditions: read-out: Ki PDGFRβ; mean, n = 2 unless otherwise indicated
PDGFRβ [2] = molecular target: T1, PDGFRβ; assay: PDGF-BB induced phosphorylation of PDGFRβ in fibroblasts (MRC5 cells, HTRF); type: cell-based; conditions: MRC5 cells; n = 1 unless otherwise indicated; read-out: PDGFBB-induced PDGFRβ phosphorylation in MRC5 cells (IC50)
PAMPA permeability assay = type: in vitro ADME; conditions: for recovery at 5 hr, 10 μM: pH 7, PAMPA; for Papp at 5 h, 10 μM: pH 7, pH 7, 10 μM
[3] = PAMPA, donor and acceptor compartments

T1 sequence (P09619 33-1106): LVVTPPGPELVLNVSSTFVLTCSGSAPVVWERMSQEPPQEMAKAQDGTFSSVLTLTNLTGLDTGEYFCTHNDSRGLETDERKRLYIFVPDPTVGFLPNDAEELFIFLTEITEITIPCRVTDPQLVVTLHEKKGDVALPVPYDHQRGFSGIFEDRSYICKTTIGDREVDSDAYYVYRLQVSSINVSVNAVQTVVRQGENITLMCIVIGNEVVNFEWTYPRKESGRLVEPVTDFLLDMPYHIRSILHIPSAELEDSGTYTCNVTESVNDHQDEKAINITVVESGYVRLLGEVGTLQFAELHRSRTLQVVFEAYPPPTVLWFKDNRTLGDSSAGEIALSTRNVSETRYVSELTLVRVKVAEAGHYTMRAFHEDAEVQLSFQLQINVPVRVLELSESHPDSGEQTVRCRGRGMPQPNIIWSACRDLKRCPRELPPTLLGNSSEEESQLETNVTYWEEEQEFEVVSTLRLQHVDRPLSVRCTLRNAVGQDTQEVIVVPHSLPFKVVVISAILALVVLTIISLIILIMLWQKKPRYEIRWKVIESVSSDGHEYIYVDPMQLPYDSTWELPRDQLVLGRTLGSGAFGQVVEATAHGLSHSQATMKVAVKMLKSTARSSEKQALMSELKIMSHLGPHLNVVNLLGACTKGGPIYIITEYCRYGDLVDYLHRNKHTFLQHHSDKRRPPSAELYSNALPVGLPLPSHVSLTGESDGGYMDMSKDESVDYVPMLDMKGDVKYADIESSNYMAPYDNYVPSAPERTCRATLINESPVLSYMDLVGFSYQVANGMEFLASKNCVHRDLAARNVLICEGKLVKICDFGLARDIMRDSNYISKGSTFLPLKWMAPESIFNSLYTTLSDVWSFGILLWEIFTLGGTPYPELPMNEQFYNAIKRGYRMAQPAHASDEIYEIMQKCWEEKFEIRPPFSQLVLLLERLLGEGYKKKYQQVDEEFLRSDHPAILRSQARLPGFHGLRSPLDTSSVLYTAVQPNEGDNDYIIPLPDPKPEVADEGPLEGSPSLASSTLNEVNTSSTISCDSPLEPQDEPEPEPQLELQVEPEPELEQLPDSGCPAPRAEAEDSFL

Ki (PDGFRβ [1]) [nM]	IC50 (PDGFRβ [2]) [nM]	recovery at 5 hr, 10 μM (PAMPA permeability assay; [3]) [%]	Papp at 5 h, 10 μM (PAMPA permeability assay; PAMPA, 5 hr) [×10⁻⁶ cm/s]	% Recovery (PAMPA permeability assay; [3])	Mean Papp (PAMPA permeability assay; pH 7, 10 μM, 5 hr)	Compound	Cell viability at 100 nM (%) (MRC5 cells)	Cell viability at 300 nM (%) (MRC5 cells)	Cell viability at 1000 nM (%) (MRC5 cells)
11.1	–	57.2	0.434	–	–	COC(=O)c1ccc2c(c1)NC(=O)/C2=C(\Nc1ccc(C(=O)N(C)OCCN2CCN(C)CC2)cc1)c1ccccc1 [Example 14]	110.8	96.9%	87.5%
11.7	–	91.9	0.0142	–	–	COC(=O)c1ccc2c(c1)NC(=O)/C2=C(\Nc1ccc(C(=O)NOCCN2CCN(C)CC2)c(C)c1)c1ccccc1 [Example 17]	83	90.5%	92.5%
10.2	6.79	–	–	–	–	COC(=O)c1ccc2c(c1)NC(=O)/C2=C(\Nc1ccc(C(=O)N(OC)C2CCN(C)CC2)cc1)c1ccccc1 [Example 21]	95.5	86.6%	53%
15.5	–	71.8	44.8	–	–	COC(=O)c1ccc2c(c1)NC(=O)/C2=C(\Nc1ccc(C(=O)N2CCN(C)CCO2)cc1)c1ccccc1 [Example 24]	85.4	104.7%	103.1%

The remaining lines, values behind:

Compound	Ki (PDGFRβ [1]) [nM]	IC50 (PDGFRβ [2]) [nM]	recovery at 5 hr, 10 μM (PAMPA permeability assay; [3]) [%]	Papp at 5 h, 10 μM (PAMPA permeability assay; PAMPA, 5 hr) [×10⁻⁶ cm/s]	% Recovery (PAMPA permeability assay; [3])	Mean Papp (PAMPA permeability assay; pH 7, 10 μM, 5 hr)	Cell viability at 100 nM (%) (MRC5 cells)	Cell viability at 300 nM (%) (MRC5 cells)	Cell viability at 1000 nM (%) (MRC5 cells)
COC(=O)c1ccc2c(c1)NC(=O)/C2=C(\Nc1ccc(C(=O)NOCCN2CCCCC2)cc1)c1ccccc1 [Example 8, (Z)-Methyl 2-oxo-3-(phenyl((4-((2-(piperidin-1-yl)ethoxy)carbamoyl)phenyl)amino)methylene)indoline-6-carboxylate]	27.8	21.5	–	–	–	–	93.4	95.7%	91%
CNC(=O)CN1CCN(CCON(C)C(=O)c2ccc(N/C(=C3\C(=O)Nc4cc(C(=O)OC)c(C)cc43)c3ccccc3)cc2)CC1 [Example 9, (Z)-Methyl 5-methyl-3-(((4-(methyl(2-(4-(2-(methylamino)-2-oxoethyl)piperazin-1-yl)ethoxy)carbamoyl)phenyl)amino)(phenyl)methylene)-2-oxoindoline-6-carboxylate]	–	8.45	82.9	0.0761	–	–	129.9	96.3%	88.6%
COC(=O)c1ccc2c(c1)NC(=O)/C2=C(\Nc1ccc(S(=O)(=O)N(C)OC)cc1)c1ccccc1 [Example 11]	–	15.3	–	–	–	–	104.8	91.5 (n = 2) %	94.8 (n = 2) %
COC(=O)c1ccc2c(c1)NC(=O)/C2=C(\Nc1ccc(C(=O)NOCCN2CCOCC2)cc1)c1ccccc1 [Example 12]	11.6	–	41	0.564	–	–	104.8	101.7%	79.4%
COC(=O)c1ccc2c(c1)NC(=O)/C2=C(\Nc1ccc(C(=O)NOCCN2CCOCC2)c(C)c1)c1ccccc1 [Example 16]	14.1	–	–	–	–	–	79	59.9%	51.9%
COC(=O)c1ccc2c(c1)NC(=O)/C2=C(\Nc1ccc(C(=O)NOCCN(C)C)c(F)c1)c1ccccc1 [Example 20]	11.1	–	–	0.0305	91.7% and 66.5%	0.0296 10^−6 cm s^−1	75.5	81.7%	90.7%
COC(=O)c1ccc2c(c1)NC(=O)/C2=C(\Nc1ccc(C(=O)N(C)OCCN(C)C)c(C)c1)c1ccccc1 [Example 22]	10	6.68	–	–	–	–	102	74.1%	39.2%
COC(=O)c1ccc2c(c1)NC(=O)/C2=C(\Nc1ccc(C(=O)N(CCN(C)C)OC)cc1)c1ccccc1 [Example 23]	12.2	–	51.8	20	–	–	93.1	85.9%	67.9%
